Experimental findings from patent US20110038948A1, “Methods of Reducing the Production of Reactive Oxygen Species and Methods of Screening or Identifying Compounds and Compositions that Reduce the Production of Reactive Oxygen Species” (UNIVERSITY OF TENNESSEE RESEARCH FOUNDATION, priority 2005, published 2011) are described below.

Molecules are shown by their SMILES.

Common to all, as to format: cell-based, mouse
In test [1] the test system is 3T3-L1 adipocytes. Briefly: Intracellular ROS generation in cultured adipocytes (H2-DCFDA). The conditions noted are these: α-tocopherol 1 μmol/L added, all groups. The procedure:
3T3-L1 preadipocytes were incubated at a density of 8000 cells/cm^2 (10 cm^2 dish) and grown in Dulbecco's modified Eagle's medium (DMEM) containing 10% FBS and antibiotics (adipocyte medium) at 37° C. in 5% CO2 in air. Confluent preadipocytes were induced to differentiate with a standard differentiation medium consisting of DMEM-F10 (1:1, vol/vol) medium supplemented with 1% FBS, 1 μM dexamethasone, IBMX (0.5 mM) and antibiotics (1% Penicillin-Streptomycin). Preadipocytes were maintained in this differentiation medium for 3 days and subsequently cultured in adipocyte medium. Cultures were re-fed every 2-3 days to allow 90% of cells to reach full differentiation before conducting chemical treatment. Chemicals were freshly diluted in adipocyte medium before treatment. Cells were washed with fresh adipocyte medium, re-fed with medium containing the different treatments, and incubated at 37° C. in 5% CO2 in air before analysis. Cell viability was measured via trypan blue exclusion. […] Cells were loaded with H2-DCFDA (2 μmol/L) 30 minute before the end of the incubation period (48 h). After washing twice with PBS, cells were scraped and disrupted by sonication on ice (20 s). Fluorescence (emission 543 nm or 527 nm) and DNA content were then measured as described previously. The intensity of fluorescence was expressed as arbitrary units per ng DNA.

Another test relates to IL-15. Briefly: IL-15 expression in 3T3-L1 adipocytes. The conditions noted are these: 1 μmol/L α±tocopherol added to 100 nmol/L H2O2, 48 h; P=0.043. The procedure:
(§1) 3T3-L1 pre-adipocytes were incubated at a density of 8000 cells/cm^2 (10 cm^2 dish) and grown in Dulbecco's modified Eagle's medium (DMEM) containing 10% FBS and antibiotics (adipocyte medium) at 37° C. in 5% CO2 in air. Confluent pre-adipocytes were induced to differentiate with a standard differentiation medium consisting of DMEM-F10 (1:1, vol/vol) medium supplemented with 1% fetal bovine serum (FBS), 1 μM dexamethasone, isobutylmethylxanthine (IBMX) (0.5 mM) and antibiotics (1% Penicillin-Streptomycin). Pre-adipocytes were maintained in this differentiation medium for 3 days and subsequently cultured in adipocyte medium. Cultures were re-fed every 2-3 days to allow 90% cells to reach fully differentiation before conducting chemical treatment. […] Cell viability was measured via trypan blue exclusion. Adipocyte and muscle 18s, TNFα, IL-6, IL-8, IL-15 and adiponectin were quantitatively measured using a smart cycler real-time PCR system (Cepheid, Sunnyvale, Calif.) with a TaqMan 1000 Core Reagent Kit (Applied Biosystems, Branchburg, N.J.). […] Reactions of quantitative RT-PCR for standards and unknown samples were also performed according to the instructions of Smart Cycler System (Cepheid, Sunnyvale, Calif.) and TaqMan Real Time PCR Core Kit (Applied Biosystems, Branchburg, N.J.). The mRNA quantitation for each sample was further normalized using the corresponding 18s quantitation.

The test system of a further test is adiponectin. As to the kind of experiment: Adiponectin expression in 3T3-L1 adipocytes. The conditions noted are these: 48 h. As to the method:
as §1

Test [2] deals with 3T3-L1 adipocytes. Briefly: Cell proliferation / DNA synthesis in cultured adipocytes (CyQUANT). The procedure:
3T3-L1 preadipocytes were incubated at a density of 8000 cells/cm^2 (10 cm^2 dish) and grown in Dulbecco's modified Eagle's medium (DMEM) containing 10% FBS and antibiotics (adipocyte medium) at 37° C. in 5% CO2 in air. Confluent preadipocytes were induced to differentiate with a standard differentiation medium consisting of DMEM-F10 (1:1, vol/vol) medium supplemented with 1% FBS, 1 μM dexamethasone, IBMX (0.5 mM) and antibiotics (1% Penicillin-Streptomycin). Preadipocytes were maintained in this differentiation medium for 3 days and subsequently cultured in adipocyte medium. Cultures were re-fed every 2-3 days to allow 90% of cells to reach full differentiation before conducting chemical treatment. Chemicals were freshly diluted in adipocyte medium before treatment. Cells were washed with fresh adipocyte medium, re-fed with medium containing the different treatments, and incubated at 37° C. in 5% CO2 in air before analysis. Cell viability was measured via trypan blue exclusion. Cells were plated in DMEM with different treatment in duplicate in 96-well plates. After 48 h, a CyQUANT Cell Proliferation Kit (Molecular Probes, Eugene, Oreg.) was used following the manufacturer's protocol. a microplate fluorometer (Packard Instrument Company, Inc., Downers Grove, Ill.) was used to measure CyQUANT fluorescence. Cell viability was determined by Trypan blue exclusion examination.

Test [3] concerns 3T3-L1 adipocytes. Briefly: Intracellular Ca2+ in cultured adipocytes (fura-2). The procedure:
3T3-L1 preadipocytes were incubated at a density of 8000 cells/cm^2 (10 cm^2 dish) and grown in Dulbecco's modified Eagle's medium (DMEM) containing 10% FBS and antibiotics (adipocyte medium) at 37° C. in 5% CO2 in air. Confluent preadipocytes were induced to differentiate with a standard differentiation medium consisting of DMEM-F10 (1:1, vol/vol) medium supplemented with 1% FBS, 1 μM dexamethasone, IBMX (0.5 mM) and antibiotics (1% Penicillin-Streptomycin). Preadipocytes were maintained in this differentiation medium for 3 days and subsequently cultured in adipocyte medium. Cultures were re-fed every 2-3 days to allow 90% of cells to reach full differentiation before conducting chemical treatment. Chemicals were freshly diluted in adipocyte medium before treatment. Cells were washed with fresh adipocyte medium, re-fed with medium containing the different treatments, and incubated at 37° C. in 5% CO2 in air before analysis. Cell viability was measured via trypan blue exclusion. [Ca^2+]i in adipocytes was measured using a fura-2 dual-wavelength fluorescence imaging system. Cells were plated in 35-mm dishes […]). […] Cells were loaded with fura-2 acetoxymethyl ester (fura-2 AM) (10 μmol/L) in the same buffer for 2 h at 37° C. in a dark incubator with 5% CO2. To remove extracellular dye, cells were rinsed with HBSS three times and then post-incubated at room temperature for an additional 1 h for complete hydrolysis of cytoplasmic fura-2 AM. The dishes with dye-loaded cells were mounted on the stage of Nikon TMS-F fluorescence inverted microscope with a Cohu model 4915 charge-coupled device (CCD) camera. Fluorescent images were captured alternatively at excitation wavelengths of 340 and 380 nm with an emission wavelength of 520 nm. After establishment of a stable baseline, the responses to 1α, 25-(OH)2-D3 was determined. [Ca^2+]i was calculated using a ratio equation as described previously. Each analysis evaluated responses of 5 representative whole cells. Images were analyzed with […]2 version 4.62 imaging software (Intracellular Imaging, Cincinnati, Ohio). […]

For `Cc1c(C)c2c(c(C)c1O)CC[C@@](C)(CCC[C@H](C)CCC[C@H](C)CCCC(C)C)O2` [α-tocopherol], the “effect on ROS production” value in the test on 3T3-L1 adipocytes [1] was “inhibited”. Besides, the “increase in IL-15 as compared to H2O2-treated cells” value in the test with IL-15 is given as 2.2 fold. In addition, the “effect on adiponectin production” value in the test with adiponectin was “increased”. The “effect on DNA synthesis” value in the test with 3T3-L1 adipocytes [2] (α-tocopherol 1 μmol/L added, all groups) is listed as “inhibited”. For the same compound, the “effect on H2O2 induced DNA synthesis” value with 3T3-L1 adipocytes [2] (α-tocopherol 1 μmol/L or nifedipine 10 μmol/L plus H2O2, 48 hours) is given as “completely blocked”. Also, the “effect on H2O2 induced increase in [Ca2+]i” value with 3T3-L1 adipocytes [3] (α-tocopherol 1 μmol/L plus H2O2, 4 hours) was “reversed”. For the same compound, the “effect on glucose induced increase in [Ca2+]i” value in the test on 3T3-L1 adipocytes [3] (α-tocopherol 1 μmol/L plus glucose 30 mmol/L, 4 hours) is reported as “partially blocked”.
